Laboratory results taken from US20220243177A1, “METHODS OF CULTURING QUIESCENT HEMATOPOIETIC STEM CELLS AND TREATMENT METHODS” (priority 2019, published 2022).

Key:
Type in all cases: cell-based, mouse
[1] = tested on: MMP-low and MMP-high HSCs of CAG-RFP-EGFP-LC3 bone marrow; experiment: CAG-RFP-EGFP-LC3 assay; conditions: ConA 40 nM, 3 hours; superior to starving condition
Method: CAG-RFP-EGFP-LC3 Assay. Total BM cells from CAG-RFP-EGFP-LC3 mice were cultured in StemSpan with SCF (10 ng/mL) and TPO (20 ng/mL) at 8×10^6 cells/ mL. Cells were either incubated with ConA (40 nM), chloroquine (CQ, […]), leupeptin ([…]) or DMSO control, or -starved amino acid-depleted RPMI 1640 media for 3 hours to induce autolysosome accumulation. Both GFP and mRFP are expressed in a single transgene, both green and red fluorescence is emitted from the same LC3 molecule, with 1:1 stoichiometry, thus allowing a more-accurate quantification of autophagosomes and autolysosomes measured by flow cytometry 3 hours post-treatment. Given the fluorescent incompatibility, only frequency of HSC with autophagosome (RFP^+GFP^+-LC3) or autolysosome formation (RFP^+-LC3) normalized to conditions with MMP-low against MMP-high HSCs was determined.

[2] = tested on: MMP-low and MMP-high HSCs; experiment: Autophagic vacuole formation / lysosomal localization of mitochondria (confocal immunofluorescence)
Description: Immunofluorescence Staining, Imaging, and Analysis—Super Resolution Confocal Microscopy: Images were acquired with a Zeiss LSM 880 confocal microscope equipped with Airyscan Super Resolution Imaging module, using a 100×/1.46 Alpha Plan Apochromat objective lens (Zeiss MicroImaging, Jena, Germany) with “optimal” (Nyquist) XY scaling. Z stacks through the entire cell were acquired at an […] (at least 20 optical sections) using a pixel dwell time of >50 microseconds and field dimensions of […] (20 MMP-low and 20 MMP-high HSCs analyzed). This was followed by Airyscan image processing (set at auto but rarely over 6.2) and analyses using ZEN image acquisition and processing software (ZEN blue/black). Maximum intensity projections shown in the figures were also obtained using ZEN Blue software.
Lysosomal Localization of Mitochondria. FACS-sorted MMP-low and MMP-high HSCs (LSKCD150^+CD48^-MMP-low/-high) were treated with DMSO control or leupeptin […] for 4 hours. HSCs were then fixed and imaged for TOM20 (mitochondria) and LAMP1 (lysosomes).
Autophagic Vacuole Formation. Accumulation of autophagy substrates, Translocase of outer membrane 20 (TOM20) or Map11c3a (LC3), was determined in the presence of amino acid-containing (DMSO) or -starved amino acid-depleted media, v-ATPase inhibitor concanamycin A (ConA 40nM), inhibitor of autophagosome-autolysosome fusion chloroquine (CQ, […]), or protease inhibitor, leupeptin […] following guidelines outlined for study of autophagy (Klionsky et al., “Guidelines for the Use and Interpretation of Assays for Monitoring Autophagy (3rd Edition),” Autophagy 12(1): 1-222 (2016) and Martinez-Lopez et al., “Autophagy Proteins Regulate ERK Phosphorylation,” Nat. Commun. 4: 2799 (2013), which are hereby incorporated by reference in their entirety). In brief, FACS-sorted
MMP-low and MMP- high HSCs were cultured in the presence or absence of indicated inhibitors for 4, 5, or 18 hours following which cells were subjected to immunofluorescence assays for TOM20, LC3 and/or LAMP1 or LAMP2 as described above. Analyses were performed to quantify the turnover of indicated protein in lysosomes by evaluating the accumulation of TOM20 or LC3 in the presence versus absence of an inhibitor. TOM20 and LC3 flux were determined by subtracting the colocalized value of inhibitor-untreated TOM20 or LC3 with LAMP1 from corresponding inhibitor-treated values. Images were captured using a Zeiss LSM880 Airyscan confocal microscope using 100 X objectives (Leica), and percentage colocalization was calculated using the JACoP plugin (NIH ImageJ).
Mitochondrial and Lysosome Morphology: Freshly isolated HSCs were analyzed for mitochondrial morphology. Each individual HSC (150 total) was analyzed by using Arivis Vision 4D software and classified as either fragmented or not fragmented in accordance with number of surfaces. Cells that fulfilled the definition of ‘fragmented’ contained 3 or more individual mitochondrial surfaces (Kask et al., “Fluorescence-intensity Distribution Analysis and Its Application in Biomolecular Detection Technology,” Proc. Natl. Acad. Sci. USA 96(24): 13756-13761 (1999), which is hereby incorporated by reference in its entirety). Lysosomes' fluorescence intensity or area profiling was calculated using ImageJ software enabling the detection of fluorescently labeled […] boundaries (lysosomal marker LAMP1), as reflected by sharp increases or decreases in fluorescence intensity. Channels displaying fluorescence for either mitochondria or lysosomes were thresholded with the IsoData option to delimit the boundaries of mitochondrial networks and lysosome morphology. The resulting outlines were measured using the analyzed particles option to determine the size of distinct particles representing mitochondrial networks or lysosomes. More than 50 cells/condition/experiment were analyzed for lysosomes. […]

[3] = tested on: MMP-low and MMP-high HSCs; experiment: Lysosome acidity (LysoTracker green, LysoSensor blue); conditions: ConA 40 nM, 5 hours
Method: To test lysosome acidity in MMP-low and MMP-high HSCs, FACS-sorted MMP-low and MMP-high HSCs were incubated in Stem-Span media with SCF (10 ng/mL) and TPO (20 ng/mL) or amino acid free medium (starvation) containing ConA (40 nM) or DMSO control for 5 hr; and then cells were incubated with […] Lysotracker green (LTR) or 1mM Lysosensor Blue diluted in above medium for 30 min (37° C., 5% CO2). Cells were rapidly washed with warm PBS (37° C.) three times, mounted and images were captured using a Zeiss LSM880 confocal microscope using a 40× objective (N.A. 1.4).

[4] = tested on: MMP-low and MMP-high HSCs; experiment: Long term culture-initiating cell (LTC-IC) assay
Method: Long Term Culture-Initiating Cell (“LTC-IC”) Assay: Long-term cultures were initiated as described in Lemieux et al., “Characterization and Purification of a Primitive Hematopoietic Cell Type in Adult Mouse Marrow Capable of Lymphomyeloid Differentiation in Long-Term Marrow ‘Switch’ Cultures,” Blood 86: 1339-1347 (1995), which is hereby incorporated by reference in its entirety. […] The frequency of long-term culture-initiated cells (“LTC-ICs”) was determined by limiting dilution and applying Poisson distribution statistics as described in Hu & Smyth, “ELDA: Extreme Limiting Dilution Analysis for Comparing Depleted and Enriched Populations in Stem Cell and Other Assays,” J. Immunol. Methods 347: 70-78 (2009), which is hereby incorporated by reference in its entirety.

[5] = aged HSCs, Con A 40 nM, two days

SMILES: C/C=C/[C@H]1O[C@@](O)([C@@H](C)[C@H](O)[C@H](C)[C@H]2OC(=O)/C(OC)=C/C(C)=C/[C@@H](C)[C@@H](O)[C@@H](CC)[C@@H](O)[C@H](C)C/C(C)=C/C=C/[C@@H]2OC)C[C@@H](O[C@H]2C[C@@H](O)[C@H](OC(N)=O)[C@@H](C)O2)[C@@H]1C [ConA, concanamycin A]
- frequency of autolysosome (RFP+)-accumulated MMP-high and MMP-low HSCs [1]: specifically promoted the frequency
- fold increase of enlarged lysosomes, MMP-high HSCs ([2]; 5-hour ConA treatment, 40 nM): 35
- fold increase of enlarged lysosomes, MMP-low HSCs ([2]; 5-hour ConA treatment, 40 nM): 32
- increase of lysosomal localization of TOM20, MMP-high HSCs ([2]; ConA 40 nM): ~3 fold
- increase of lysosomal localization of TOM20, MMP-low HSCs ([2]; ConA 40 nM): ~1.3 fold
- mitochondrial fragmentation ([2]; ConA 40 nM): enhanced mitochondrial fragmentation
- increase in LC3-positive puncta, MMP-high HSCs ([2]; ConA 40 nM, 18 hours): 3 fold
- increase in LC3-positive puncta, MMP-low HSCs ([2]; ConA 40 nM, 18 hours): 1.33 fold
- autolysosomal degradation (colocalization of LAMP1 with LC3) ([2]; ConA 40 nM, leupeptin 100 mM, chloroquine 40 mM, 18 hours, MMP-low and MMP-high HSCs): dramatically prevented autolysosomal degradation
- lysosomal acidity [3]: reduced
- enhanced frequency of LTC-ICs, MMP-high HSCs ([4]; ConA 40 nM, 48-hour or 4-day): 2.5 fold
- enhanced frequency of LTC-ICs, MMP-low HSCs ([4]; ConA 40 nM, 48-hour or 4-day): 1.5 fold
- size of LTC-IC-derived colonies ([4]; ConA 40 nM, two days): increased size of colonies
- LTC-IC-derived colonies from aged HSCs [4, 5]: increased the LTC-IC-derived colonies
- number of LTC-IC recovered from aged HSC cultures [4, 5]: improved the number
